According to patent US20080234262A1 (Wyeth, priority 2007, published 2008):
Where two headings read alike, the source gives them in different places.

Key:
prostate line LNCap = assay: In vitro cell culture growth assay (MTS), LNCap; format: cell-based, human; conditions: LNCap cells, three days after drug treatment;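 further: viable cell density read by absorbance at 490 nm, growth expressed as percent of vehicle-treated cells on the same plate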
breast line MDA468 = assay: In vitro cell culture growth assay (MTS), MDA468; format: cell-based, human; conditions: MDA468 cells, three days after drug treatment
Outline: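 Steps: plate cells; add inhibitors the next day; incubate 3 days; add MTS dye, which viable cells convert metabolically; measure absorbance at 490 nm; calculate percent of control growth relative to vehicle-treated cells in the same plate.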

PI3K = PI3K (Homo sapiens, UniProt P42336); assay: Fluorescence polarization assay for PI3K; format: biochemical;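 further: PI3K kinase reaction on PIP2 with ATP, 30-60 min, product sensed by GST-GRP with red probe in fluorescence polarization (mP), controls without enzyme and at zero time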
PI3K, sequence (P42336 whole entry): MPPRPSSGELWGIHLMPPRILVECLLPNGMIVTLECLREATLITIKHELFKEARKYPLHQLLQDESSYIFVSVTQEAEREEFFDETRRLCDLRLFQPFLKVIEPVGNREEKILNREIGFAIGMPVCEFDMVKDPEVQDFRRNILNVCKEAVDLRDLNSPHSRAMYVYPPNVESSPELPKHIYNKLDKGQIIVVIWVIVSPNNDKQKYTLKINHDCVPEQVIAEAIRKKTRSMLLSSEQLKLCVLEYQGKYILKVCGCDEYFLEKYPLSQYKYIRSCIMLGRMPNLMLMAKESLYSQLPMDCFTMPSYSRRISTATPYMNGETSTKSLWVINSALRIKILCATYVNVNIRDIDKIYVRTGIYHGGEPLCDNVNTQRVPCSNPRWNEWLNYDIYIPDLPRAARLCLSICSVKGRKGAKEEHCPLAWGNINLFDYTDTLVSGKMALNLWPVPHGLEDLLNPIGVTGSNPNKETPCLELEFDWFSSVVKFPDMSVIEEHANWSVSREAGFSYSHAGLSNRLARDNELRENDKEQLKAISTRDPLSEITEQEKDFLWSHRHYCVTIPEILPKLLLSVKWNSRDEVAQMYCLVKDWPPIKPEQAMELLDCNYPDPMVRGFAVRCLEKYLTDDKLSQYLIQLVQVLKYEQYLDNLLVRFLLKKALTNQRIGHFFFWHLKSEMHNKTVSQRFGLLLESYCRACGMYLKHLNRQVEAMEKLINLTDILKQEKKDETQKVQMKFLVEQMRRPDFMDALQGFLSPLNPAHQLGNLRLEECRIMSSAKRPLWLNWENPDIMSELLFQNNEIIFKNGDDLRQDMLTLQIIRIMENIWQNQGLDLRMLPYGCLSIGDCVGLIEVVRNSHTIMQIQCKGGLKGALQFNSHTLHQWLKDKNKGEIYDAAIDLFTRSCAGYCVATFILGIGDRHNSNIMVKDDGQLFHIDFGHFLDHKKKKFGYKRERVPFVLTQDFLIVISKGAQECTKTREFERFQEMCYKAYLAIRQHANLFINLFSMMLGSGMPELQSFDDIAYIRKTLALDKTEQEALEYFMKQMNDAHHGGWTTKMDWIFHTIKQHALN
PI3K, sequence (P27986 whole entry partner): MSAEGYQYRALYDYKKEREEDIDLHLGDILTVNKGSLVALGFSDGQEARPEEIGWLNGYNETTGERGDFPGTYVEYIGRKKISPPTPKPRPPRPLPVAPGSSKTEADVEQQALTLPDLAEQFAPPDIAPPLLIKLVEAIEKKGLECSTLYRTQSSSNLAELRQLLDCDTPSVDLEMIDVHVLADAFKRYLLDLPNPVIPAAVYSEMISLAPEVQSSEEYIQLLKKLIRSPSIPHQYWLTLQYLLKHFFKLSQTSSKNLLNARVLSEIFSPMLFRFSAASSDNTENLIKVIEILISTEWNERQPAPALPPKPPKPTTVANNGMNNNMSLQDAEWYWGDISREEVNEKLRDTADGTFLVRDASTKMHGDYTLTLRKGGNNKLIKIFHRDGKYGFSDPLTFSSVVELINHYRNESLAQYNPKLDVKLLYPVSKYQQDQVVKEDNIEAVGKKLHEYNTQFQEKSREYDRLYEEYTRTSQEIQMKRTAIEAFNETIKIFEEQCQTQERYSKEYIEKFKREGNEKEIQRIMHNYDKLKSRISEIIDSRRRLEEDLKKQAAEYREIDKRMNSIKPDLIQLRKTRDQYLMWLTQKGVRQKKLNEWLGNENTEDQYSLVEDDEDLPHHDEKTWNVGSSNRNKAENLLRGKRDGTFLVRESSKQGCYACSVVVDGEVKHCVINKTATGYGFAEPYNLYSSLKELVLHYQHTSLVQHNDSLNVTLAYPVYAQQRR

Compound | IC50 (prostate line LNCap; Homo sapiens, LNCaP, 72 h) [nM] | IC50 (breast line MDA468; Homo sapiens, 72 h) [nM] | IC50 (PI3K; PI3Kα, read-out: PI3Kα IC50) [nM] | IC50 (prostate line LNCap; Homo sapiens, 72 h) [nM] | IC50 (PI3K; PI3Kα IC50, PI3Kα) [nM] | IC50 (prostate line LNCap) [nM] | IC50 (breast line MDA468) [nM]
CNC(=O)Nc1ccc(-c2nc(N3CCOCC3)c3cnn(C4CCN(C(=O)OCCOC)CC4)c3n2)cc1 [Compound 800, 2-methoxyethyl 4-(6-{4-[(methylcarbamoyl)amino]phenyl}-4-morpholin-4-yl-1H-pyrazolo[3,4-d]pyrimidin-1-yl)piperidine-1-carboxylate] | 140 | 260 | 119 | – | – | – | –
NC(=O)Nc1ccc(-c2nc(N3CCOCC3)c3cnn(C4CCN(C(=O)c5ccccc5)CC4)c3n2)cc1 [Example 382, 1-{4-[1-(1-benzoylpiperidin-4-yl)-4-morpholin-4-yl-1H-pyrazolo[3,4-d]pyrimidin-6-yl]phenyl}urea] | 170 | 200 | 85 | – | – | – | –
CNC(=O)Nc1ccc(-c2nc(N3CCOCC3)c3cnn([C@@H]4CCCNC4)c3n2)cc1 [Compound 875, 1-methyl-3-(4-{4-morpholin-4-yl-1-[(3R)-piperidin-3-yl]-1H-pyrazolo[3,4-d]pyrimidin-6-yl}phenyl)urea] | 1100 | 1250 | 46 | – | – | – | –
CNC(=O)Nc1ccc(-c2nc(N3CCOCC3)c3cnn(C4CCN(C(=O)Oc5ccccc5)CC4)c3n2)cc1 [Compound 755, phenyl 4-(6-{4-[(methylcarbamoyl)amino]phenyl}-4-morpholin-4-yl-1H-pyrazolo[3,4-d]pyrimidin-1-yl)piperidine-1-carboxylate] | – | 160 | – | 60 | 16 | – | –
CNC(=O)Nc1ccc(-c2nc(N3CCOCC3)c3cnn(C4CCN(C(=O)c5ccccc5C)CC4)c3n2)cc1 [Compound 602, 1-methyl-3-(4-{1-[1-(2-methylbenzoyl)piperidin-4-yl]-4-morpholin-4-yl-1H-pyrazolo[3,4-d]pyrimidin-6-yl}phenyl)urea] | < 27 | 70 | 93 | – | – | – | –
Cc1ccc(CN2CCC(n3ncc4c(N5CCOCC5)nc(-c5ccc6[nH]ccc6c5)nc43)CC2)cc1 [Example 56] | 2000 | 2700 | 425 | – | – | – | –
O=CN1CCC(n2ncc3c(N4CCOCC4)nc(-c4ccc5[nH]ccc5c4)nc32)CC1 [Compound 251, 4-[6-(1H-indol-5-yl)-4-morpholin-4-yl-1H-pyrazolo[3,4-d]pyrimidin-1-yl]piperidine-1-carbaldehyde] | 1000 | 3000 | 2800 | – | – | – | –
c1ccc(CCN2CCC(n3ncc4c(N5CCOCC5)nc(-c5ccc6[nH]ccc6c5)nc43)CC2)cc1 [Compound 489, 6-(1H-indol-5-yl)-4-morpholin-4-yl-1-[1-(2-phenylethyl)piperidin-4-yl]-1H-pyrazolo[3,4-d]pyrimidine] | 780 | 3100 | 3090 | – | – | – | –
CNC(=O)Nc1ccc(-c2nc(N3CCOCC3)c3cnn(C4CCSCC4)c3n2)cc1 [Compound 867, 1-methyl-3-{4-[4-morpholin-4-yl-1-(tetrahydro-2H-thiopyran-4-yl)-1H-pyrazolo[3,4-d]pyrimidin-6-yl]phenyl}urea] | < 18.5 | < 68.5 | 47 | – | – | – | –
CNC(=O)Nc1ccc(-c2nc(N3CCOCC3)c3cnn(C4CCN(Cc5cccc(C)c5)CC4)c3n2)cc1 [Example 430, 1-methyl-3-(4-{1-[1-(3-methylbenzyl)piperidin-4-yl]-4-morpholin-4-yl-1H-pyrazolo[3,4-d]pyrimidin-6-yl}phenyl)urea] | 52 | 200 | 42 | – | – | – | –
FC(F)(F)CN1CCC(n2ncc3c(N4CCOCC4)nc(-c4ccc5[nH]ccc5c4)nc32)CC1 [Compound 471, 6-(1H-indol-5-yl)-4-morpholin-4-yl-1-[1-(2,2,2-trifluoroethyl)piperidin-4-yl]-1H-pyrazolo[3,4-d]pyrimidine] | 4000 | 7800 | 2880 | – | – | – | –
COC(=O)N1CCC(n2ncc3c(N4CCOCC4)nc(-c4ccc(NC(=O)OCCF)cc4)nc32)CC1 [Compound 865, methyl 4-[6-(4-{[(2-fluoroethoxy)carbonyl]amino}phenyl)-4-morpholin-4-yl-1H-pyrazolo[3,4-d]pyrimidin-1-yl]piperidine-1-carboxylate] | 680 | 4100 | 2950 | – | – | – | –
COC(=O)Nc1ccc(-c2nc(N3CCOCC3)c3cnn(C4CCN(Cc5ccc(F)cc5)CC4)c3n2)cc1 [Compound 694, methyl (4-{1-[1-(4-fluorobenzyl)piperidin-4-yl]-4-morpholin-4-yl-1H-pyrazolo[3,4-d]pyrimidin-6-yl}phenyl)carbamate] | – | – | 750 | – | – | 1200 | 2600
CCOC(=O)N1CCC(n2ncc3c(N4CCOCC4)nc(-c4ccc(NC(=O)NC)cc4)nc32)CC1 [Compound 750, ethyl 4-(6-{4-[(methylcarbamoyl)amino]phenyl}-4-morpholin-4-yl-1H-pyrazolo[3,4-d]pyrimidin-1-yl)piperidine-1-carboxylate] | 33 | 80 | 221 | – | – | – | –
c1cc2cc(-c3nc(N4CCOCC4)c4cnn(CCN5CCNCC5)c4n3)ccc2[nH]1 [Compound 162, 6-(1H-indol-5-yl)-4-morpholin-4-yl-1-(2-piperazin-1-ylethyl)-1H-pyrazolo[3,4-d]pyrimidine] | 33000 | 60000 | 1850 | – | – | – | –
